Laboratory results reported in article PMC5654082 (Malaria Journal, 2017).
Structures can show the parent of a compound that is named as a salt.

Target: T1, human OCT2 (Homo sapiens, UniProt O15244)
T1 construct: host or cells: HEK293, baculovirus transduction (CMV promoter), transient
T1 sequence (O15244 1-555): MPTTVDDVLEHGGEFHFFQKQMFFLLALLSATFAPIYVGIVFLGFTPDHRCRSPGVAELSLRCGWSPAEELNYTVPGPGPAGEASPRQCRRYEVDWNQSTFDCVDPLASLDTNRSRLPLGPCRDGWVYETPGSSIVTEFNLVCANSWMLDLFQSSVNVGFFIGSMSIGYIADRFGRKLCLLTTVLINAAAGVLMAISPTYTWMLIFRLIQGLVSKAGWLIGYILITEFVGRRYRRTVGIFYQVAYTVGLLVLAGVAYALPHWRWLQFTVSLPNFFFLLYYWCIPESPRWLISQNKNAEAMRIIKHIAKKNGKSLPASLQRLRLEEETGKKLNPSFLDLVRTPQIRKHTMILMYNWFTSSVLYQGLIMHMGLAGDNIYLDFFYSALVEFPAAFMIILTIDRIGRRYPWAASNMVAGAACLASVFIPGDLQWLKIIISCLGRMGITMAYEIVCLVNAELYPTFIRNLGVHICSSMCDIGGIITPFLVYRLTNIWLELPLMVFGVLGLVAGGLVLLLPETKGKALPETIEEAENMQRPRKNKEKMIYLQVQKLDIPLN
Experiment: OCT2-mediated cellular import in transduced HEK293 cells (LC-MS/MS)
Type: cell-based
Protocol: HEK293 cells were modified to transiently express (a combination of) human OCT1, OCT2, MATE1, MATE2-K, or eYFP. Briefly, cDNA of the respective genes was cloned downstream of a CMV promoter into a baculovirus, of which passage three was used to transduce HEK293 cells. These cells were seeded in poly-D-lysine coated 24- or 96-wells plates and grown in a 37 °C incubator at 5% CO2. Growth was initiated at ~ 25% confluency using 375 or 125 μL cell and complete medium (DMEM + GlutaMAX™-I supplemented with 10% fetal bovine serum) suspension per well, respectively. After 24 h, cells were transduced with 30 µL virus (10 µL virus + 20 µL complete medium in case of 96-wells plates) or 2 × 15 µL virus for cells that required simultaneous expression of two transporters. Finally, 195 µL sodium butyrate (45 µL for 96-wells plates) was added to a final concentration of 2 mM to enhance protein expression.
HEK293 cells were seeded in 24-wells poly-D-lysine coated plates and transduced the subsequent day with OCT1 or OCT2 as described above. Three days following transduction, OCT1- or OCT2-mediated uptake of ten anti-malarials (AMO, ART, ATO, CQ, DHA, LUM, MQ, PQ, PG, and QN) was performed. […] Following a second wash with 400 µL ice-cold HBSS-HEPES buffer, cells were lysed with 200 µL 50% (v/v) MeOH and 0.1% (v/v) formic acid (HCOOH) in water and samples were sent for quantification by mass spectrometry analysis (see “LC–MS/MS quantification of anti-malarials” section). […]
The affinity (KM) and maximum transport rate (Vmax) for OCT1 and OCT2 of PG were determined by analysing concentration-dependent uptake data from three independent experiments.
Import and export of PG and cycloguanil (CG) was assessed by single and double transduced HEK293 cells. […] Following the same procedure as for the cellular import assay described above, the import of 100 µM PG and CG was measured after 5 min incubation and data was plotted as mean pmol/mg/min ± SEM. […] Significant reduction in uptake (i.e. export by MATEs) was determined using ln transformation and a one-way repeated measures ANOVA with Dunnet’s post test. […]

Uptake by OCT2 (100 µM, 5 min) | SMILES | Uptake by OCT2, percentage of mock-transduced control (10 µM, 15 min, 37 °C)
118 ± 18 pmol/mg/min | CC1(C)N=C(N)N=C(N)N1c1ccc(Cl)cc1 [Cycloguanil] | –
– | [H]/N=C(\N/C(=N/[H])Nc1ccc(Cl)cc1)NC(C)C [Proguanil, proguanil hydrochloride] | 207 ± 17%
